From US20260130933A1, “PHARMACEUTICAL COMPOSITION FOR PREVENTION OR TREATMENT OF NEPHROPATHY AND/OR DIABETES MELLITUS, COMPRISING ENAVOGLIFLOZIN” (DAEWOONG PHARMACEUTICAL CO., LTD., priority 2022, published 2026)

Assay: Example 2: phase 3 trial, enavogliflozin 0.3 mg vs dapagliflozin 10 mg once a day for 24 weeks added to metformin in patients with type 2 diabetes (same efficacy, exploratory and safety endpoints)
Type: in vivo, human
Method: Subjects who met the inclusion/exclusion criteria were administered a placebo of the clinical trial drug under single-blind (subject blinding) conditions during a 2-week run-in period while continuing to receive metformin. […] The randomized subjects were administered two tablets of the clinical trial drug for each administration group once a day, and then visited the institution at weeks 6, 12, 18, and 24 during the 24-week administration period to conduct efficacy and safety evaluations.
• 1. Change in HbA1c at week 24 after administration of clinical trial drug compared to Visit 2 (randomization)
• 1. Change in HbA1c at each time point of weeks 6, 12, and 18 after administration of clinical trial drug compared to Visit 2 (randomization) • 2. Change in FPG at each time point of weeks 6, 12, 18, and 24 after administration of clinical trial drug compared to Visit 2 (randomization) • 3. Proportion of subjects achieving HbA1c<7% at each time point of weeks 6, 12, 18, and 24 after administration of clinical trial drug • 4. Proportion of subjects achieving HbA1c<6.5% at each time point of weeks 6, 12, 18, and 24 after administration of clinical trial drug • 5. Proportion of subjects achieving therapeutic response (HbA1c change (HbA1c at Visit 2-HbA1c at each evaluation time point)>0.5% or HbA1c<7% at each evaluation time point compared to Visit 2 (randomization)) at each time point of weeks 6, 12, 18 and 24 after administration of clinical trial drug
• 1. Change in fasting c-peptide at each time point of weeks 6, 12, 18, and 24 after administration of clinical trial drug compared to Visit 2 (randomization) • 2. Change in body weight at each time point of weeks 6, 12, 18, and 24 after administration of clinical trial drug compared to Visit 2 (randomization) • 3. Change in fasting lipid concentration (total cholesterol, LDL-C, HDL-C, and triglycerides) at each time point of weeks 6, 12, 18, and 24 after administration of clinical trial drug compared to Visit 2 (randomization) • 4. Changes in systolic or diastolic blood pressure at each time point of weeks 6, 12, 18, and 24 after administration of clinical trial drug compared to Visit 2 (randomization) • 5. Changes in β-cell function and insulin resistance measured by HOMA-β and HOMA-IR at each time point of weeks 6, 12, 18, and 24 after administration of clinical trial drug compared to Visit 2 (randomization) • 6. Changes in renal function-related indicators (UACR, UGCR) measured by UACR at each time point of weeks 6, 12, 18, and 24 after administration of clinical trial drug compared to Visit 2 (randomization) • 7. Changes in obesity-related indicators (adiponectin, leptin) at each time point of weeks 6, 12, 18, and 24 after administration of clinical trial drug compared to Visit 2 (randomization)

[1] = week 6, per-protocol set, enavogliflozin 0.3 mg, dapagliflozin 10 mg
[2] = week 12, modified per-protocol set 1, enavogliflozin 0.3 mg, dapagliflozin 10 mg
[3] = week 12, per-protocol set, enavogliflozin 0.3 mg vs dapagliflozin 10 mg
[4] = week 12, per-protocol set, enavogliflozin 0.3 mg, dapagliflozin 10 mg

In the case of `OC[C@H]1O[C@@H](c2cc(Cc3ccc(C4CC4)cc3)c(Cl)c3c2CCO3)[C@H](O)[C@@H](O)[C@@H]1O` [Enavogliflozin, (2S,3R,4R,5S,6R)-2-(7-chloro-6 (4-cyclopropylbenzyl)-2,3-dihydrobenzofuran-4-yl)-6-(hydroxymethyl)tetrahydro-2H-pyran-3,4,5-triol], the “Change from baseline in fasting c-peptide, ANCOVA LS mean (SE)” value [1] is reported as −0.07(0.02) ng/mL, the “Change from baseline in fasting c-peptide, Mean (SD)” value [1] is reported as −0.06(0.19) ng/mL and the “Change from baseline in fasting c-peptide, Median” value [1] is reported as -0.03 ng/mL. The “FPG, Mean (SD)” value [1] was 118.44 mg/dL, the “FPG, Median” value [1] was 115.00 mg/dL and the “HbA1c, Mean (SD)” value [1] was 7.13%. For the same compound, the “HbA1c, Median” value [1] was 6.98%, the “Subjects achieving HbA1c target of <6.5%, (%)” value [1] was “(12.63) %” and the “Subjects achieving therapeutic glycemic response, (%)” value [1] was “(78.95) %”. For the same compound, the “body weight, Mean (SD)” value [1] was 68.61(11.27) kg, the “body weight, Median” value [1] was 67.30 kg and the “fasting c-peptide, Mean (SD)” value [1] was 0.66(0.24) ng/mL. The “fasting c-peptide, Median” value [1] was 0.60 ng/mL, the “FPG change from baseline, LS mean (SE)” value (week 12) was −29.70(1.96) mg/dL and the “HOMA-IR change from baseline, LS mean (SE)” value (week 12) was −1.58(0.17). The “HOMA-β change from baseline, LS mean (SE)” value (week 12) was 5.57(3.08), the “HbA1c change from baseline, LS mean (SE)” value (week 12) was −0.83(0.06) % p and the “LDL-C change from baseline, LS mean (SE)” value (week 12) was 1.86(1.68) mg/dL. For the same compound, the “Subjects achieving HbA1c target of <7%” value (week 12) was “(68.09) %”, the “Subjects achieving HbA1c<6.5%” value (week 12) was 15.96% and the “Subjects achieving therapeutic response (HbA1c change >0.5% or HbA1c<7%)” value (week 12) was 88.30%. The “UACR change from baseline, LS mean (SE)” value (week 12) was −21.65(7.38) g/kg, the “UGCR change from baseline, LS mean (SE)” value (week 12) was 64.70(2.58) mg/mg and the “diastolic blood pressure change from baseline, LS mean (SE)” value (week 12) was −4.19(0.79) mmHg. For the same compound, the “fasting c-peptide change from baseline, LS mean (SE)” value (week 12) was −0.08(0.02) ng/ml, the “leptin change from baseline, LS mean (SE)” value (week 12) was −2.64(0.49) ng/mL and the “FPG change from baseline, LS mean difference” value (week 12, vs dapagliflozin) was 0.42 mg/dL. For the same compound, the “HDL-C change from baseline, LS mean difference” value (week 12, vs dapagliflozin) was 0.06 mg/dL, the “HOMA-IR change from baseline, LS mean difference” value (week 12, vs dapagliflozin) was 0.02 and the “HOMA-β change from baseline, LS mean difference” value (week 12, vs dapagliflozin) was −3.17. The “HbA1c change from baseline, LS mean difference” value (week 12, vs dapagliflozin) was −0.03 % p, the “LDL-C change from baseline, LS mean difference” value (week 12, vs dapagliflozin) was 1.30 mg/dL and the “Odds ratio for achieving HbA1c<6.5%” value (week 12, vs dapagliflozin) was 0.51. For the same compound, the “Odds ratio for achieving HbA1c<7%” value (week 12, vs dapagliflozin) was 1.21, the “Odds ratio for achieving therapeutic response” value (week 12, vs dapagliflozin) was 2.04 and the “UACR change from baseline, LS mean difference” value (week 12, vs dapagliflozin) was −18.27. The “UGCR change from baseline, LS mean difference” value (week 12, vs dapagliflozin) was 19.57 mg/mg, the “body weight change from baseline, LS mean difference” value (week 12, vs dapagliflozin) was -0.19 kg and the “diastolic blood pressure change from baseline, LS mean difference” value (week 12, vs dapagliflozin) was 0.16 mmHg. The “fasting c-peptide change from baseline, LS mean difference” value (week 12, vs dapagliflozin) was 0.01 ng/mL, the “leptin change from baseline, LS mean difference” value (week 12, vs dapagliflozin) was 0.07 ng/mL and the “systolic blood pressure change from baseline, LS mean difference” value (week 12, vs dapagliflozin) was 0.26 mmHg. The “total cholesterol change from baseline, LS mean difference” value (week 12, vs dapagliflozin) was 3.01 mg/dL, the “triglyceride change from baseline, LS mean difference” value (week 12, vs dapagliflozin) was 2.57 mg/dL and the “Subjects achieving HbA1c target of <7%” value (week 12, listed as enavogliflozin) was 68.09%. For the same compound, the “Change from baseline in total cholesterol, ANCOVA LS mean difference” value (week 12, modified per-protocol set 1, enavogliflozin 0.3 mg vs dapagliflozin 10 mg) was 3.01 mg/dL, the “Change from baseline in Total cholesterol, ANCOVA LS mean (SE)” value [2] was 7.26(1.98) mg/dL and the “Change from baseline in Total cholesterol, Mean (SD)” value [2] was 5.74(18.70) mg/dL. The “Change from baseline in total cholesterol, Median” value [2] was 6.00 mg/dL, the “fasting Total cholesterol, Mean (SD)” value [2] was 157.39(31.50) mg/dL and the “fasting Total cholesterol, Median” value [2] was 150.00 mg/dL. The “Change from baseline in FPG, ANCOVA LS mean difference” value [3] was 0.42 mg/dL, the “Change from baseline in HbA1c, ANCOVA LS mean difference” value [3] was −0.03 % p and the “Change from baseline in body weight, ANCOVA LS mean difference” value [3] was -0.19 kg. The “Change from baseline in fasting c-peptide, ANCOVA LS mean difference” value [3] was 0.01 ng/mL, the “Odds ratio for achieving HbA1c target of <6.5%, logistic regression model” value [3] was 0.51 and the “Odds ratio for achieving therapeutic glycemic response, logistic regression model” value [3] was 2.04. The “Change from baseline in FPG, ANCOVA LS mean (SE)” value [4] was -29.70 mg/dL, the “Change from baseline in FPG, Mean (SD)” value [4] was -27.74 mg/dL and the “Change from baseline in FPG, Median” value [4] was -26.00 mg/dL. For the same compound, the “Change from baseline in HbA1c, ANCOVA LS mean (SE)” value [4] was −0.83 % p, the “Change from baseline in HbA1c, Mean (SD)” value [4] was −0.77 % p and the “Change from baseline in HbA1c, Median” value [4] was −0.65 % p. The “Change from baseline in body weight, ANCOVA LS mean (SE)” value [4] was −2.81(0.23) kg, the “Change from baseline in body weight, Mean (SD)” value [4] was −2.78(2.48) kg and the “Change from baseline in body weight, Median” value [4] was -2.75 kg. The “Change from baseline in fasting c-peptide, ANCOVA LS mean (SE)” value [4] was −0.08(0.02) ng/mL, the “Change from baseline in fasting c-peptide, Mean (SD)” value [4] was −0.07(0.21) ng/mL and the “Change from baseline in fasting c-peptide, Median” value [4] was -0.07 ng/mL. The “FPG, Mean (SD)” value [4] was 117.00 mg/dL.
